ChEMBL document CHEMBL4715869, “N-(Pyrimidin-2-yl)-1,2,3,4-tetrahydroisoquinolin-6-amine Derivatives as Selective Janus Kinase 2 Inhibitors for the Treatment of Myeloproliferative Neoplasms” (J Med Chem, 2020)
Active and inactive are the calls of the source. The calls are words filed in the database; no cut-off is given here.

Legend:
[1] = Tmax in male Sprague-Dawley rat at 5 mg/kg, iv administered […] measured upto 24 hrs by LC/MS/MS analysis; format: ADME, organism-based; conditions: in vivo
[2] = Selectivity index, ratio of IC50 for inhibition of recombinant human FLT3 D835Y mutant (564 to end residues) to IC50 for inhibition of recombinant human JAK2 (808 to end residues)
SET-2 [3] = assay: Induction of apoptosis in human SET-2 cells assessed as necrotic cells at 0.05 uM incubated for 24 hrs by Annexin V/PI staining based flow cytometric analysis (reference value: 0.78%); format: functional
[4] = molecular target: Receptor-type tyrosine-protein kinase FLT3 (Homo sapiens) (UniProt P36888); assay: Inhibition of FLT3 in human SET2 cells assessed as decrease in AKT phosphorylation at 1 to 1000 nM after 2 hrs by Western blot analysis; format: cell-based; conditions: dose 1-1000 nM
Chain of Receptor-type tyrosine-protein kinase FLT3 (Homo sapiens) (P36888 whole entry): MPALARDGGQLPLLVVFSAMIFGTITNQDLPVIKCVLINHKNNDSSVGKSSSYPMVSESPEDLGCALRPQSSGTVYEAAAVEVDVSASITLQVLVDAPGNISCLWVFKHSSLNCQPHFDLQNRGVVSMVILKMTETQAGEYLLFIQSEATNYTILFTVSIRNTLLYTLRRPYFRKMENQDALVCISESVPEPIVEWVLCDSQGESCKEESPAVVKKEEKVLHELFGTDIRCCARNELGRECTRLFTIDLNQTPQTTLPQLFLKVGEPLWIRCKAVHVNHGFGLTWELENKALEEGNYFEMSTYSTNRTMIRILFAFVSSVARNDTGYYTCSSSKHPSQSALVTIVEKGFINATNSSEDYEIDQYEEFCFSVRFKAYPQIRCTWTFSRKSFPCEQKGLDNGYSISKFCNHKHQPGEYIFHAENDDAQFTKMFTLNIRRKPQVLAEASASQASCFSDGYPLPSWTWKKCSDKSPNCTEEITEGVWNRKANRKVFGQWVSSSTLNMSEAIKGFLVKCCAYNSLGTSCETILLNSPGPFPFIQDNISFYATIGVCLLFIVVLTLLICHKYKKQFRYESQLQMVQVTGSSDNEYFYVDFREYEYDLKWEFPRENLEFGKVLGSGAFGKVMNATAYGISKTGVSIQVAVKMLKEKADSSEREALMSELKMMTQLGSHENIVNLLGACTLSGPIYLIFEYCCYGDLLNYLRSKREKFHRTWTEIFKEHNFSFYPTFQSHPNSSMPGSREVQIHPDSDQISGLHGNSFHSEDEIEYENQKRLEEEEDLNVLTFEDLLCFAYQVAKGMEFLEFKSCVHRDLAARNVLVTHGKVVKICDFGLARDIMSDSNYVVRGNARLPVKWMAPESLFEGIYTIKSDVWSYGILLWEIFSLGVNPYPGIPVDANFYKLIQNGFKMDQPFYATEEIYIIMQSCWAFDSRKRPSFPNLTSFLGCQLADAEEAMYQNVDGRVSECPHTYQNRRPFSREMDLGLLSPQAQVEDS

SET-2 [5] = assay: Induction of apoptosis in human SET-2 cells assessed as late apoptotic cells at 1.6 uM incubated for 24 hrs by Annexin V/PI staining based flow cytometric analysis (reference value: 1.52%); format: functional
BaF3 [6] = assay: Antitumor activity against mouse BAF3 cells harboring JAK2 V617F mutant implanted in Balb/c mouse assessed as decrease in liver weight at 30 mg/kg, po qd administered starting from day 4 to 20 and measured on day 25 relative to control; format: functional; parameters: scale not given: the % may be the effect or the level left; conditions: time 21 day
[7] = AUC (0 to t) in Sprague-Dawley rat at 5 mg/kg, po administered via gavage measured upto 24 hrs by LC/MS/MS analysis; format: ADME, organism-based; parameters: route oral, dose 5 mg/kg, time <=24; conditions: in vivo
[8] = Elimination half life in male Sprague-Dawley rat at 5 mg/kg, iv administered […] measured upto 24 hrs by LC/MS/MS analysis; format: ADME, organism-based; conditions: in vivo, read-out: beta t1/2 (converted)
Vero = assay: Cytotoxicity against African green monkey Vero cells assessed as reduction in cell viability incubated for 72 hrs by MTT assay; format: cell-based; conditions: Chlorocebus sabaeus
SET-2 [9] = assay: Induction of apoptosis in human SET-2 cells assessed as early apoptotic cells at 0.2 uM incubated for 24 hrs by Annexin V/PI staining based flow cytometric analysis (reference value: 1.47 %); format: functional
[10] = Metabolic stability in rat liver microsomes assessed as half-life; format: ADME, Microsome
[11] = molecular target: Tyrosine-protein kinase JAK2 (Homo sapiens, UniProt O60674); assay: Inhibition of recombinant human JAK2 (808 to end residues) KTFCGTPEYLAPEVRREPRILSEEEQEMFRDFDYIADWC as substrate measured after 40 mins in presence of [gamm33P]ATP by scintillation counting method
Chain of Tyrosine-protein kinase JAK2 (O60674 whole entry): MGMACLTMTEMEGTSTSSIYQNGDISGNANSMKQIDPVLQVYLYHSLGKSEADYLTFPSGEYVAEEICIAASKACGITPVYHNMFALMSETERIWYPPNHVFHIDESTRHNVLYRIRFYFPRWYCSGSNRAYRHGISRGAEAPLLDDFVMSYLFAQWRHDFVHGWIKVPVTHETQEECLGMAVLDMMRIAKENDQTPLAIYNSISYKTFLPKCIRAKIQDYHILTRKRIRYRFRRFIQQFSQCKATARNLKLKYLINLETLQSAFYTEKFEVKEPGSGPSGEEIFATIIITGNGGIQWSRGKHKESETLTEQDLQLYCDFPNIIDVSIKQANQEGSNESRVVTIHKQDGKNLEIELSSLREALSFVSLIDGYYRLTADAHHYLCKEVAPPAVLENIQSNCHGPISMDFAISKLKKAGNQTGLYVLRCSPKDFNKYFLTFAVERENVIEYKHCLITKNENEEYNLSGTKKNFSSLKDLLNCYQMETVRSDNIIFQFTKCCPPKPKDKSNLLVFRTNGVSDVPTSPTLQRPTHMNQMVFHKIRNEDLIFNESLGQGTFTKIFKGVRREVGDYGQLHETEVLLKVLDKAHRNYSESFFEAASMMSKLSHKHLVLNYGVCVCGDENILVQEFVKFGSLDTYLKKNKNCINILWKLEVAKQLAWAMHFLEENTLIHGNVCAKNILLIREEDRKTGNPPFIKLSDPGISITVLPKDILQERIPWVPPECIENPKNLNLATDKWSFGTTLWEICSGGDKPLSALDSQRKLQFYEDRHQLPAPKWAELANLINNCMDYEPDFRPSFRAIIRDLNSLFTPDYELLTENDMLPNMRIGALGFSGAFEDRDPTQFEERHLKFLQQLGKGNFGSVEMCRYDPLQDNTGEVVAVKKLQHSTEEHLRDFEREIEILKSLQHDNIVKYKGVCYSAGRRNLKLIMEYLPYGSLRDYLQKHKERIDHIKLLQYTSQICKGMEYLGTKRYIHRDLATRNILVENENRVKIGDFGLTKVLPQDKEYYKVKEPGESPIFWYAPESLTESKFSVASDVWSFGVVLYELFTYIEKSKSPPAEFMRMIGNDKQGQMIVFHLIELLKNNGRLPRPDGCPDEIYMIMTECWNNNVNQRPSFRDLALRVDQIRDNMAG

[12] = Elimination half life in male Sprague-Dawley rat at 5 mg/kg, po administered via gavage measured upto 24 hrs by LC/MS/MS analysis; format: ADME, organism-based; conditions: in vivo, read-out: beta t1/2 (converted)
SET-2 [13] = assay: Induction of apoptosis in human SET-2 cells assessed as early apoptotic cells at 1.6 uM incubated for 24 hrs by Annexin V/PI staining based flow cytometric analysis (reference value: 1.47 %); format: functional
BaF3 [14] = assay: Antitumor activity against mouse BAF3 cells harboring JAK2 V617F mutant implanted in Balb/c mouse assessed as decrease in liver weight at 60 mg/kg, po qd administered starting from day 4 to 20 and measured on day 25 relative to control; format: functional; parameters: scale not given: the % may be the effect or the level left; conditions: time 21 day
SET-2 [15] = assay: Induction of apoptosis in human SET-2 cells assessed as early apoptotic cells at 0.4 uM incubated for 24 hrs by Annexin V/PI staining based flow cytometric analysis (reference value: 1.47 %); format: functional
BaF3 [16] = assay: Antitumor activity against mouse BAF3 cells harboring JAK2 V617F mutant implanted in Balb/c mouse assessed as decrease in spleen weight at 30 mg/kg, po qd administered starting from day 4 to 20 and measured on day 25 relative to control; format: functional; parameters: scale not given: the % may be the effect or the level left; conditions: time 21 day
SET-2 [17] = assay: Induction of apoptosis in human SET-2 cells assessed as live cells at 1.6 uM incubated for 24 hrs by Annexin V/PI staining based flow cytometric analysis (reference value: 96.23 %); format: functional
[18] = Cmax in male Sprague-Dawley rat at 5 mg/kg, po administered via gavage measured upto 24 hrs by LC/MS/MS analysis; format: ADME, organism-based; parameters: route oral, dose 5 mg/kg, time <=24; conditions: in vivo
SET-2 [19] = assay: Antitumor activity against human SET2 cells xenografted in NOD/SCID mouse assessed as tumor growth inhibition at 60 mg/kg, po qd administered for 16 days and measured every 2 days relative to control; format: functional; conditions: SET-2, po, 384 h, time 16 day, read-out: TGI
SET-2 [20] = assay: Induction of apoptosis in human SET-2 cells assessed as early apoptotic cells at 0.8 uM incubated for 24 hrs by Annexin V/PI staining based flow cytometric analysis (reference value: 1.47 %); format: functional
SET-2 [21] = assay: Induction of apoptosis in human SET-2 cells assessed as live cells at 0.2 uM incubated for 24 hrs by Annexin V/PI staining based flow cytometric analysis (reference value: 96.23 %); format: functional
[22] = tested on: Receptor-type tyrosine-protein kinase FLT3 (Homo sapiens), P36888 [UNDEFINED MUTATION]; assay: Inhibition of FLT3 ITD mutant in human MOLM13 cells assessed as residual activity at 100 nM relative to control; format: cell-based; conditions: MOLM-13
Chain of Receptor-type tyrosine-protein kinase FLT3 (Homo sapiens), P36888 [UNDEFINED MUTATION] (P36888 whole entry, looked up, change not shown): as the sequence (P36888 whole entry) above

SET-2 [23] = assay: Induction of apoptosis in human SET-2 cells assessed as late apoptotic cells at 0.2 uM incubated for 24 hrs by Annexin V/PI staining based flow cytometric analysis (reference value: 1.52%); format: functional
[24] = Cmax in male Sprague-Dawley rat at 5 mg/kg, iv administered […] measured upto 24 hrs by LC/MS/MS analysis; format: ADME, organism-based; parameters: route intravenous, dose 5 mg/kg, time <=24; conditions: in vivo
SET-2 [25] = assay: Induction of apoptosis in human SET-2 cells assessed as necrotic cells at 0.8 uM incubated for 24 hrs by Annexin V/PI staining based flow cytometric analysis (reference value: 0.78%); format: functional

## Cc1cnc(Nc2ccc3c(c2)CCN(C(=O)/C=C/CN(C)C)C3)nc1-c1cnn(C(C)C)c1
[1]
  Tmax: 4.8 min
[2]
  Ratio IC50: 20.7
SET-2 [3]
  Activity: 0.35%
[4]
  inhibition: inactive
SET-2 [5]
  Activity: 45.54%
BaF3 [6]
  Activity: 36.2%
[7]
  AUC(0-t) at 24 h: 254 ng·h/mL
[8]
  half-life: 4 h
Vero
  IC50: 6.75 µM
SET-2 [9]
  Activity: 3.36%
[10]
  half-life: 0.91 h
[11]
  IC50: 0.003 µM
[12]
  half-life: 1.8 h
SET-2 [13]
  Activity: 27.3%
BaF3 [14]
  Activity: 66.3%
SET-2 [15]
  Activity: 5.92%
BaF3 [16]
  Activity: 44%
SET-2 [17]
  Activity: 23.03%
[18]
  Cmax: 51.1 ng/mL
SET-2 [19]
  inhibition in vivo at 60 mg/kg: 82.3%
SET-2 [20]
  Activity: 9.12%
SET-2 [21]
  Activity: 90.35%
[22]
  Activity: 54%
SET-2 [23]
  Activity: 5.66%
[24]
  Cmax: 479 ng/mL
SET-2 [25]
  Activity: 1.37%
